According to patent publication US20220235343A1, “NOVEL ADP-RIBOSYL CYCLASE AND INHIBITOR THEREOF” (INDUSTRIAL COOPERATION FOUNDATION CHONBUK NATIONAL …, priority 2019, published 2022):

Experiments:
Format in all cases: in vivo
[1] = system: diabetic renal disease mouse model (STZ, C57BL/6J mice); assay: Blood glucose, kidney-to-body weight ratio, creatinine clearance rate and urine albumin level in STZ renal disease mouse model; details: STZ+DCQA group vs STZ, DCQA 9 μg/mL 100 μL intraperitoneally every day for 6 weeks
Protocol: The blood glucose, kidney-to-body weight ratio, creatinine clearance rate and urine albumin level in a renal disease mouse model were measured by the method reported by Kim S Y et al. [Kim S Y, Park K H, Gul R, Jang K Y, Kim U H. Am. J. Physiol. Renal Physiol. 296: F291-F297, 2009]
(§1) Specifically, 0.2 mL of 50 mM citrate buffer (pH 4.8) (control group and DCQA group) or 200 μL of 5 mg/mL streptozotocin (STZ, Sigma-Aldrich (USA)) dissolved in 50 mM citrate buffer (STZ group and STZ+DCQA group) was intraperitoneally injected to C57BL/6J mice. Blood glucose was measured from day 2 after the STZ injection and the mice whose blood glucose level was 300 mg/dL were divided into an STZ group and an STZ+DCQA group. […] On the last day, the mouse was put in a metabolic cage and urine was collected for 24 hours.
Then, the body weight and blood glucose of the mouse were measured (FIG. 6A). In addition, in order to investigate the possibility as a therapeutic agent for a renal disease, the mouse was sacrificed and serum and kidney were taken. After measuring kidney-to-body weight ratio (FIG. 6B), some of the kidney was fixed in 10% formalin for fluorescent staining and H&E staining, and the remainder was subjected to ADPR cyclase activity and cADPR concentration measurement. Creatinine clearance rate was calculated by measuring the creatinine levels in urine and serum using a creatinine assay kit (Bioassay Systems, USA) (FIG. 6C), and urine albumin level was measured using an albumin assay kit (Bioassay Systems, USA) (FIG. 6D).

[2] = system: ADPRC activity and cADPR concentration in kidney tissue; assay: ADPRC activity and cADPR concentration in kidney tissue of renal disease mouse model; details: STZ mice, DCQA i.p. every day for 6 weeks
Protocol: The ADPRC activity and cADPR concentration in the kidney tissue of a renal disease mouse model were measured by the method reported by Kim S Y et al. [Kim S Y, Park K H, Gul R, Jang K Y, Kim U H. Am. J. Physiol. Renal Physiol. 296: F291-F297, 2009]
as §1, with “In order to investigate” for “On”, “possibility as a therapeutic agent for a renal disease,” for “last day,”, “sacrificed” for “put in a metabolic cage”, “serum and kidney were taken.” for “urine was collected for 24 hours.”
After lysing some of the kidney tissue with a lysis buffer, 45 μL of the lysed sample was treated with 5 μL of 2 mM NGD (nicotinamide guanine dinucleotide) and reacted at 37° C. for 1 hour. Then, the enzyme-substrate reaction was stopped by treating with 50 μL of 10% trichloroacetic acid. After centrifuging for 10 minutes and adding 80 μL of the supernatant to 720 μL of a 0.1 M sodium phosphate buffer, absorbance was measured at 297 nm (excitation) and 410 nm (emission) with a fluorescence spectrometer (Hitachi, Japan). […]

[3] = system: hypertension mouse model (L-NAME, C57BL/6J mouse); assay: Blood pressure and creatinine clearance rate in L-NAME hypertension mouse model; details: DCQA 9 μg/mL 100 μL intraperitoneally every day for 7 days
Protocol: The blood pressure and creatinine clearance rate in a hypertension mouse model were measured by the method reported by Allagnat et al. [Allagnat F, Haefliger J A, Lambelet M, Longchamp A, Berard X, Mazzolai L, Corpataux J M, Deglise S. Eur. J. Vasc. Endovasc. Surg. 51: 733-742, 2016] and Kim S Y et al. [Kim S Y, Park K H, Gul R, Jang K Y, Kim U H. Am. J. Physiol. Renal Physiol. 296: F291-F297, 2009]
Specifically, 0.2 mL of 8 mg of L-NAME (Nw-nitro-L-arginine-methyl-ester, Sigma-Aldrich, USA) dissolved in 1 mL of saline was orally administered to C57BL/6J mouse every day. On days 7 and 14 of the oral administration, blood pressure was measured at the tail of the mouse. […] On day 6 after the DCQA treatment, the mouse was put in a metabolic cage and urine was collected for 24 hours.
After measuring the blood pressure of the mouse (FIG. 11A), the mouse was sacrificed and serum was obtained.
Creatinine clearance rate was calculated by measuring the creatinine levels in urine and serum using a creatinine assay kit (Bioassay Systems, USA) (FIG. 11B).

For `O=C(/C=C/c1ccc(O)c(O)c1)OC1[C@H](O)CC(OC(=O)/C=C/c2ccc(O)c(O)c2)(C(=O)O)C[C@H]1O` (some centres unmarked) [DCQA, 1,4-dicaffeoylquinic acid], the blood glucose ([1]; FIG. 6A) was “did not show decreased in blood glucose”, the “kidney to body weight” value ([1]; FIG. 6B) was “significant decrease in kidney to body weight” and the creatinine clearance rate ([1]; FIG. 6C) was “significant increase in creatinine clearance rate”. The urine albumin level ([1]; FIG. 6D) was “significant decrease in the urine albumin level”, the “cADPR concentration in kidney tissue” value ([2]; FIG. 7B) was “decreased the cADPR concentration increased by STZ to the level of the control group” and the “ADP-ribosyl cyclase activity in kidney tissue” value ([2]; NGD substrate, FIG. 7A) was “decreased the ADP-ribosyl cyclase activity increased by STZ to the level of the control group”. The blood pressure ([3]; FIG. 11A) was “no effect of lowering blood pressure” and the creatinine clearance rate ([3]; FIG. 11B) was “increase in creatinine clearance rate”.
